# Source: ChEMBL document CHEMBL3868586, “Mansoins C-F, Oligomeric Flavonoid Glucosides Isolated from Mansoa hirsuta Fruits with Potential Anti-inflammatory Activity” (J Nat Prod, 2016)
# The source made the active and inactive calls. The calls are words filed in the database; no cut-off is given here.
# Tests used:
# Transcription factor p65 [1] = target: T1, Transcription factor p65 (Homo sapiens, UniProt Q04206); experiment: Inhibition of NF-kappa-B p65 in human THP1 cells assessed reduction in phosphorylated p65 levels at 50 uM preincubated for 3 hrs followed by LPS stimulation after 18 hrs by Western blot analysis; format: cell-based; conditions: THP-1
# T1 sequence (Q04206 whole entry): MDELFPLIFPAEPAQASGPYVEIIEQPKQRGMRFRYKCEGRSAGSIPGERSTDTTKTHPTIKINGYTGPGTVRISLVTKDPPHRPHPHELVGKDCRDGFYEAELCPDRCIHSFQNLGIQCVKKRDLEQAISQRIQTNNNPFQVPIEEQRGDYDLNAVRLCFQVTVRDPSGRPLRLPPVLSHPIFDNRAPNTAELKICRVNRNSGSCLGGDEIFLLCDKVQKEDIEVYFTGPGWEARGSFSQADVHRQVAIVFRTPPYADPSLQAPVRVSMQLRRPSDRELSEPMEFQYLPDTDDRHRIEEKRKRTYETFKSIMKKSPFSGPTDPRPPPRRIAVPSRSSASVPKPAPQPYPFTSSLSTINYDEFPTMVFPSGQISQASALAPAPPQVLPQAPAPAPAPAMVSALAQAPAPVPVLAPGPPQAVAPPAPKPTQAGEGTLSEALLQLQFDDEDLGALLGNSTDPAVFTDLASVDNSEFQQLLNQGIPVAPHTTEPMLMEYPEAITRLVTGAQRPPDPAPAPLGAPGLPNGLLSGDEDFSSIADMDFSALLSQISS
# Transcription factor p65 [2] = target: T1, Transcription factor p65; experiment: Inhibition of LPS-induced NF-kappa-B p65 phosphorylation in human THP1 cells at 50 uM preincubated for 3 hrs followed by LPS stimulation for 18 hrs; conditions: THP-1
# Transcription factor p65 [3] = target: T1, Transcription factor p65; experiment: Inhibition of NF-kappa-B p65 in human THP1 cells assessed as suppression of LPS-induced TNFalpha release preincubated for 3 hrs followed by LPS stimulation by ELISA; format: cell-based, THP-1
inhibition (Transcription factor p65 [1]),inhibition (Transcription factor p65 [2]),IC50 (Transcription factor p65 [3]) [µM],SMILES
Active,Active,,O=C1C[C@@H](c2ccc(O)c(O[C@@H]3O[C@H](CO)[C@@H](O)[C@H](O)[C@H]3O)c2)Oc2c1c(O)c([C@H](CCc1ccc(O)cc1)c1ccc(O)cc1O[C@@H]1O[C@H](CO)[C@@H](O)[C@H](O)[C@H]1O)c(O)c2[C@@H](CCc1ccc(O)cc1)c1ccc(O)cc1O[C@@H]1O[C@H](CO)[C@@H](O)[C@H](O)[C@H]1O
Active,Active,19.3,O=C1C[C@@H](c2ccc(O)c(O[C@@H]3O[C@H](CO)[C@@H](O)[C@H](O)[C@H]3O)c2)Oc2c1c(O)c([C@H](CCc1ccc(O[C@@H]3O[C@H](CO)[C@@H](O)[C@H](O)[C@H]3O)cc1)c1ccc(O[C@@H]3O[C@H](CO)[C@@H](O)[C@H](O)[C@H]3O)cc1O[C@@H]1O[C@H](CO)[C@@H](O)[C@H](O)[C@H]1O)c(O)c2[C@@H](CCc1ccc(O[C@@H]2O[C@H](CO)[C@@H](O)[C@H](O)[C@H]2O)cc1)c1ccc(O[C@@H]2O[C@H](CO)[C@@H](O)[C@H](O)[C@H]2O)cc1O[C@@H]1O[C@H](CO)[C@@H](O)[C@H](O)[C@H]1O
